According to US5776944A, “7-(4-aminomethyl-3-methyloxyiminopyrroplidin-1-yl)-1-cyclopropyl-6-flu oro-4-oxo-1,4-dihydro-1,8-naphthyridine-3-carboxylic acid and the process for the preparation thereof” (LG Chemical Ltd., priority 1994, dated 1998):
Values after ≈ are worked out from the molar mass of the structure shown. Read-outs that look alike come from different tables or passages of the source.

Legend:
Format in all cases: cell-based
[1] = system: Staphylococcus epidermidis 887E; experiment: In vitro antibacterial activity (MIC, agar medium dilution), Biological Example 4; conditions: 18 h, Staphylococcus epidermidis 887E, Table 31, read-out: Minimum Inhibitory Concentration: MIC
[2] = system: Streptococcus faecalis 29212; experiment: as above; conditions: Enterococcus faecalis, 29212, 18 h, Streptococcus faecalis 29212, Table 31; read-out: Minimum Inhibitory Concentration: MIC
[3] = system: Escherichia coli TEM3 3455E; experiment: as above; conditions: TEM33455E, 18 h
[4] = system: Pseudomonas aeruginosa 10145; experiment: as above; conditions: Pseudomonas aeruginosa, 10145, 18 h, read-out: Minimum Inhibitory Concentration: MIC
[5] = system: Pseudomonas aeruginosa 6065Y; experiment: as above; conditions: 18 h, Table 31, read-out: Minimum Inhibitory Concentration: MIC
Procedure: (§1) In order to determine the antibacterial activitiers of the E- and Z-isomner of the compound 180 which were separated in Example 203, and of 7- (4-aminomethyl-3-methyloxylminopyrrolidin-1-yl)-1-cyclopropyl-6-fluoro-4-oxo-1,4-dihydro-1,8-naphthyridine-3-carboxylic acid methanesulfonate prepared in Example 204, in vitro antibacterial activities of them were measured using agar medium dilution method. The results were as described in the following Tables 31 and 32.

Seratis marsecence 1826E = experiment: as above; conditions: for MIC: 18 h, Table 31, read-out: Minimum Inhibitory Concentration: MIC
Procedure: as §1

[6] = system: Staphylococcus aureus 6538p; experiment: as above; conditions: 18 h, Table 31, read-out: Minimum Inhibitory Concentration: MIC
[7] = system: Staphylococcus aureus giorgio; experiment: as above; conditions: 18 h, Table 31, read-out: Minimum Inhibitory Concentration: MIC
Staphylococcus aureus 77 = experiment: as above; conditions: 18 h; Staphylococcus aureus 77, Table 31; read-out: Minimum Inhibitory Concentration: MIC
[8] = system: Staphylococcus aureus 241; experiment: as above; conditions: Staphylococcus aureus, 241, 18 h, Staphylococcus aureus 241, Table 31; read-out: Minimum Inhibitory Concentration: MIC
[9] = system: Staphylococcus epidermidis 178; experiment: as above; conditions: 18 h; Staphylococcus epidermidis 178, Table 31; read-out: Minimum Inhibitory Concentration: MIC
Bacillus subtilis 6633 = experiment: as above; conditions: 18 h; Bacillus subtilis 6633, Table 31; read-out: Minimum Inhibitory Concentration: MIC
Micrococcus luteus 9341 = experiment: as above; conditions: 18 h; Micrococcus luteus 9341, Table 31; read-out: Minimum Inhibitory Concentration: MIC
Escherichia coli 10536 = experiment: as above; conditions: Escherichia coli, 10536, 18 h, Escherichia coli 10536, Table 31; read-out: Minimum Inhibitory Concentration: MIC
Escherichia coli 3190Y = experiment: as above; conditions: 18 h, Table 31, read-out: Minimum Inhibitory Concentration: MIC
Escherichia coli 851E = experiment: as above; conditions: 18 h, Table 31, read-out: Minimum Inhibitory Concentration: MIC
[10] = system: Escherichia coli TEM5 3739E; experiment: as above; conditions: TEM53739E, 18 h, read-out: Minimum Inhibitory Concentration: MIC
[11] = system: Escherichia coli TEM9 2639E; experiment: as above; conditions: TEM92639E, 18 h, read-out: Minimum Inhibitory Concentration: MIC
[12] = system: Pseudomonas aeruginosa 1912E; experiment: as above; conditions: 18 h, Table 31, read-out: Minimum Inhibitory Concentration: MIC
[13] = system: Acinetobacter calcoaceticus 15473; experiment: as above; conditions: 18 h; Acinetobacter calcoaceticus 15473, Table 31; read-out: Minimum Inhibitory Concentration: MIC
[14] = system: Citrobacter diversus 2046E; experiment: as above; conditions: Citrobacter koseri, 18 h, Table 31, read-out: Minimum Inhibitory Concentration: MIC
[15] = system: Enterobacter cloacae 1194E; experiment: microbe, parasite or virus in culture; conditions: 18 h, read-out: Minimum Inhibitory Concentration: MIC
Enterobacter cloacae P99 = experiment: microbe, parasite or virus in culture; conditions: P99, 18 h, read-out: Minimum Inhibitory Concentration: MIC
[16] = system: Klebsiella aerogenes 1976E; experiment: In vitro antibacterial activity (MIC, agar medium dilution), Biological Example 4; conditions: 18 h, Table 31, read-out: Minimum Inhibitory Concentration: MIC
[17] = system: Klebsiella aerogenes 1082E; experiment: as above; conditions: 18 h, Table 31, read-out: Minimum Inhibitory Concentration: MIC
Proteus vulgaris 6059 = experiment: as above; conditions: 18 h; Proteus vulgaris 6059, Table 31; read-out: Minimum Inhibitory Concentration: MIC
[18] = system: Salmonella thypimurium 14028; experiment: as above; conditions: 18 h; Salmonella thypimurium 14028, Table 31; read-out: Minimum Inhibitory Concentration: MIC

O=C(O)c1cn(C2CC2)c2cc(N3CCNCC3)c(F)cc2c1=O [Ciprofloxacin, ciprofloxacin, reference compound]
MIC [1]: 0.063 mg/L (≈ 0.19 µM) | MIC [2]: 1 mg/L (≈ 3.02 µM) | MIC ([3]; read-out: Minimum Inhibitory Concentration: MIC, Escherichia coli TEM3 3455E, Table 32, ratio of weight): 0.5 mg/L | MIC ([4]; Pseudomonas aeruginosa 10145, Table 32, ratio of weight): 0.5 mg/L | MIC [5]: 4 mg/L (≈ 12.1 µM) | MIC (Seratis marsecence 1826E): 0.063 mg/L (≈ 0.19 µM) | Minimum Inhibitory Concentration: MIC (Seratis marsecence 1826E; Table 32, ratio of weight): 0.063 mg/L

CO/N=C1/CN(c2nc3c(cc2F)c(=O)c(C(=O)O)cn3C2CC2)CC1CN (stereo not drawn) [E-isomer]
MIC [6]: 0.063 mg/L (≈ 0.162 µM) | MIC [7]: 0.063 mg/L (≈ 0.162 µM) | MIC (Staphylococcus aureus 77): 0.063 mg/L (≈ 0.162 µM) | MIC [8]: 16 mg/L (≈ 41.1 µM) | MIC [1]: 0.031 mg/L (≈ 0.0796 µM) | MIC [9]: 32 mg/L (≈ 82.2 µM) | MIC [2]: 0.25 mg/L (≈ 0.642 µM) | MIC (Bacillus subtilis 6633): 0.031 mg/L (≈ 0.0796 µM) | MIC (Micrococcus luteus 9341): 0.5 mg/L (≈ 1.28 µM) | MIC (Escherichia coli 10536): 0.031 mg/L (≈ 0.0796 µM) | MIC (Escherichia coli 3190Y): 0.016 mg/L (≈ 0.0411 µM) | MIC (Escherichia coli 851E): 0.063 mg/L (≈ 0.162 µM) | MIC ([3]; read-out: Minimum Inhibitory Concentration: MIC, Escherichia coli TEM3 3455E, Table 31): 0.5 mg/L (≈ 1.28 µM) | MIC [10]: 0.5 mg/L (≈ 1.28 µM) | MIC [11]: 0.13 mg/L (≈ 0.334 µM) | MIC [12]: 1 mg/L (≈ 2.57 µM) | MIC ([4]; Pseudomonas aeruginosa 10145, Table 31): 2 mg/L (≈ 5.14 µM) | MIC [5]: 32 mg/L (≈ 82.2 µM) | MIC (Seratis marsecence 1826E): 0.5 mg/L (≈ 1.28 µM) | MIC [13]: 0.25 mg/L (≈ 0.642 µM) | MIC [14]: 0.13 mg/L (≈ 0.334 µM) | MIC [15]: 0.13 mg/L (≈ 0.334 µM) | MIC (Enterobacter cloacae P99): 0.031 mg/L (≈ 0.0796 µM) | MIC [16]: 0.25 mg/L (≈ 0.642 µM) | MIC [17]: 0.13 mg/L (≈ 0.334 µM) | MIC (Proteus vulgaris 6059): 1 mg/L (≈ 2.57 µM) | MIC [18]: 0.13 mg/L (≈ 0.334 µM)
